In brackets after ≈: the same amount, converted by molar mass. Where two headings read alike, the source gives them in different places.
Legend:
[1] = test system: Panc-1 (Human pancreas carcinoma cell line); assay: Anti-cancer screening, Panc-1 cell proliferation; format: cell-based; conditions: for IC50: concentration required to inhibit 50% of the cell proliferation; for IC90: concentration required to inhibit 90% of the cell proliferation, read-out: MIC
[2] = test system: HeLa (Human Cervix epithelioid carcinoma cell line); assay: Anti-cancer screening, HeLa cell proliferation; format: cell-based; conditions: for IC50: concentration required to inhibit 50% of the cell proliferation; for IC90: concentration required to inhibit 90% of the cell proliferation, read-out: MIC
[3] = test system: A549 (Human lung adenocarcinoma epithelial cell line); assay: Anti-cancer screening, A549 cell proliferation; format: cell-based; conditions: for IC50: concentration required to inhibit 50% of the cell proliferation; for IC90: concentration required to inhibit 90% of the cell proliferation, read-out: MIC
[4] = test system: THP-1 (Human acute monocytic leukemia cell line); assay: Anti-cancer screening, THP-1 cell proliferation; format: cell-based; conditions: for IC50: concentration required to inhibit 50% of the cell proliferation; for IC90: concentration required to inhibit 90% of the cell proliferation, read-out: MIC
[5] = test system: M. Tuberculosis H37Ra (ACTIVE); assay: Anti TB in vitro, active; format: cell-based, Mycobacterium tuberculosis H37Ra; conditions: Mycobacterium tuberculosis
M. Tuberculosis [6] = assay: Anti TB ex vivo infection model, active; format: cell-based; conditions: Mycobacterium tuberculosis
M. Tuberculosis [7] = assay: Anti TB ex vivo infection model, dormant; format: cell-based; conditions: Mycobacterium tuberculosis
[8] = test system: M. Tuberculosis H37Ra (DORMANT); assay: Anti TB in vitro, dormant; format: cell-based, Mycobacterium tuberculosis H37Ra; conditions: Mycobacterium tuberculosis
[9] = In Vitro, H37Ra ACTIVE, read-out: IC 50
[10] = In Vitro, H37Ra ACTIVE, read-out: MIC
[11] = In Vitro, H37Ra DORMANT, read-out: IC 50
[12] = In Vitro, H37Ra DORMANT, read-out: MIC

Compound | IC50 [1] [µg/mL] | IC90 [1] [µg/mL] | IC50 [2] [µg/mL] | IC90 [2] [µg/mL] | IC50 [3] [µg/mL] | IC90 [3] [µg/mL] | IC50 [4] [µg/mL] | IC90 [4] [µg/mL] | IC50 [5, 9] [µg/mL] | MIC [5, 10] [µg/mL] | IC50 (M. Tuberculosis [6]) [µg/mL] | MIC (M. Tuberculosis [6]) [µg/mL] | IC50 (M. Tuberculosis [7]) [µg/mL] | MIC (M. Tuberculosis [7]) [µg/mL] | IC50 [8, 11] [µg/mL] | MIC [8, 12] [µg/mL] | melting point [°C] | also measured
COC(=O)CC[C@@H](C)C1CCC2C3C([C@H](n4cc(-c5ccccc5)nn4)C(=O)[C@@]21C)[C@@]1(C)CC[C@@H](OC(C)=O)C[C@H]1C[C@H]3OC(C)=O (stereo partly drawn) [Compound 1, (3R,5S,7R,10S,11S,13R)-17-((R)-5-methoxy-5-oxopentan-2-yl)-10,13-dimethyl-12-oxo-11-(4-phenyl-1H-1,2,3-triazol-1-yl)hexadecahydro-1H-cyclopenta[a]phenanthrene-3,7-diyl diacetate] | > 100 | > 100 | 7.02 | 99.1 | > 100 | > 100 | > 100 | > 100 | – | – | – | – | – | – | – | – | – | –
CCCCCCc1cn([C@@H]2C(=O)[C@@]3(C)C(CCC3[C@H](C)CCC(=O)OC)C3C2[C@@]2(C)CC[C@@H](OC(C)=O)C[C@H]2C[C@H]3OC(C)=O)nn1 (stereo partly drawn) [Compound 2, (3R,5S,7R,10S,11S,13R)-11-(4-hexyl-1H-1,2,3-triazol-1-yl)-17-((R)-5-methoxy-5-oxopentan-2-yl)-10,13-dimethyl-12-oxohexadecahydro-1H-cyclopenta[a]phenanthrene-3,7-diyl diacetate] | > 100 | > 100 | 6.59 | > 100 | > 100 | > 100 | > 100 | > 100 | 0.64 | 2.63 | 0.25 | 2.8 | 0.13 | 1.55 | 0.17 | 2.43 | – | –
COC(=O)CC[C@@H](C)C1CCC2C3C([C@H](n4cc(-c5ccc(F)cc5)nn4)C(=O)[C@@]21C)[C@@]1(C)CC[C@@H](OC(C)=O)C[C@H]1C[C@H]3OC(C)=O (stereo partly drawn) [Compound 3, (3R,5S,7R,10S,11S,13R)-11-(4-(4-fluorophenyl)-1H-1,2,3-triazol-1-yl)-17-((R)-5-methoxy-5-oxopentan-2-yl)-10,13-dimethyl-12-oxohexadecahydro-1H-cyclopenta[a]phenanthrene-3,7-diyl diacetate] | > 100 | > 100 | 9.76 | > 100 | > 100 | > 100 | > 100 | > 100 | – | – | – | – | – | – | – | – | – | –
COC(=O)CC[C@@H](C)C1CCC2C3C([C@H](n4cc(-c5ccccn5)nn4)C(=O)[C@@]21C)[C@@]1(C)CC[C@@H](OC(C)=O)C[C@H]1C[C@H]3OC(C)=O (stereo partly drawn) [Compound 4, (3R,5S,7R,10S,11S,13R)-17-((R)-5-methoxy-5-oxopentan-2-yl)-10,13-dimethyl-12-oxo-11-(4-(pyridin-2-yl)-1H-1,2,3-triazol-1-yl)hexadecahydro-1H-cyclopenta[a]phenanthrene-3,7-diyl diacetate] | > 100 | > 100 | 15.2 | 85.9 | > 100 | > 100 | > 100 | > 100 | – | – | – | – | – | – | – | – | – | –
CCOC(=O)N[C@@H]1C(=O)[C@@]2(C)C(CCC2[C@H](C)CCC(=O)OC)C2C1[C@@]1(C)CC[C@@H](OC(C)=O)C[C@H]1C[C@H]2OC(C)=O (stereo partly drawn) [Compound 5, (3R,5S,7R,10S,11S,13R)-11-((ethoxycarbonyl)amino)-17-((R)-5-methoxy-5-oxopentan-2-yl)-10,13-dimethyl-12-oxohexadecahydro-1H-cyclopenta[a]phenanthrene-3,7-diyl diacetate] | > 100 | > 100 | 34.2 | > 100 | > 100 | > 100 | > 100 | > 100 | – | – | – | – | – | – | – | – | 82 to 85 | –
COC(=O)CC[C@@H](C)C1CCC2C3C([C@H](NC(=O)C4CCCN4)C(=O)[C@@]21C)[C@@]1(C)CC[C@@H](OC(C)=O)C[C@H]1C[C@H]3OC(C)=O (stereo partly drawn) [Compound 6, (3R,5S,7R,10S,11S,13R)-17-((R)-5-methoxy-5-oxopentan-2-yl)-10,13-dimethyl-12-oxo-11-(pyrrolidine-2-carboxamido)hexadecahydro-1H-cyclopenta[a]phenanthrene-3,7-diyl diacetate] | > 100 | > 100 | > 100 | > 100 | > 100 | > 100 | > 100 | > 100 | – | – | – | – | – | – | – | – | 102.6 to 103.8 | –
COC(=O)CC[C@@H](C)C1CCC2C3C([C@H](NC(=O)C(CO)NC(=O)OC(C)(C)C)C(=O)[C@@]21C)[C@@]1(C)CC[C@@H](OC(C)=O)C[C@H]1C[C@H]3OC(C)=O (stereo partly drawn) [Compound 7, (3R,5S,7R,10S,11S,13R)-11-(2-((tert-butoxycarbonyl)amino)-3-hydroxypropanamido)-17-((R)-5-methoxy-5-oxopentan-2-yl)-10,13-dimethyl-12-oxohexadecahydro-1H-cyclopenta[a]phenanthrene-3,7-diyl diacetate] | > 100 | > 100 | 18.2 | > 100 | > 100 | > 100 | 76.2 | > 100 | 1.24 | 9.03 | 1.96 | 27.3 | 1.32 | 23.8 | 0.58 | 8.6 | – | –
COC(=O)CC[C@@H](C)C1CCC2C3C([C@H](n4nnc5ccccc54)C(=O)[C@@]21C)[C@@]1(C)CC[C@@H](OC(C)=O)C[C@H]1C[C@H]3OC(C)=O (stereo partly drawn) [Compound 8, (3R,5S,7R,10S,11S,13R)-11-(1H-benzo[d][1,2,3]triazol-1-yl)-17-((R)-5-methoxy-5-oxopentan-2-yl)-10,13-dimethyl-12-oxohexadecahydro-1H-cyclopenta[a]phenanthrene-3,7-diyl diacetate] | 50 | > 100 | 20.3 | > 100 | 20 | > 100 | 29.9 | > 100 | 1.08 | 9.79 | 1.11 | 8.6 | 1.65 | 8.16 | 1.27 | 7.15 | 106 to 109 | –
COC(=O)CC[C@@H](C)C1CCC2C3C([C@H](NC(=O)C4CCCN4C(=O)OC(C)(C)C)C(=O)[C@@]21C)[C@@]1(C)CC[C@@H](OC(C)=O)C[C@H]1C[C@H]3OC(C)=O (stereo partly drawn) [Compound 9, (3R,5S,7R,10S,11S,13R)-11-(1-(tert-butoxycarbonyl)pyrrolidine-2-carboxamido)-17-((R)-5-methoxy-5-oxopentan-2-yl)-10,13-dimethyl-12-oxohexadecahydro-1H-cyclopenta[a]phenanthrene-3,7-diyldiacetate] | 15 (≈ 20.9 µM) | > 100 | 18.6 (≈ 25.9 µM) | > 100 | 52 (≈ 72.5 µM) | > 100 | 46 (≈ 64.1 µM) | > 100 | 0.92 (≈ 1.28 µM) | 9.41 (≈ 13.1 µM) | 4.16 (≈ 5.8 µM) | 26.8 (≈ 37.4 µM) | 3.42 (≈ 4.77 µM) | 26.3 (≈ 36.7 µM) | 2.02 (≈ 2.82 µM) | 8.91 (≈ 12.4 µM) | 114 to 118 | –
COC(=O)CC[C@@H](C)C1CCC2C3C([C@H](NC(C)C)C(=O)[C@@]21C)[C@@]1(C)CC[C@@H](OC(C)=O)C[C@H]1C[C@H]3OC(C)=O (stereo partly drawn) [Compound 10, (3R,5S,7R,10S,11S,13R)-11-(isopropylamino)-17-((R)-5-methoxy-5-oxopentan-2-yl)-10,13-dimethyl-12-oxohexadecahydro-1H-cyclopenta[a]phenanthrene-3,7-diyl diacetate] | > 100 | > 100 | 11.6 | > 100 | > 100 | > 100 | > 100 | > 100 | – | – | – | – | – | – | – | – | – | –
NNC(=O)c1ccncc1 [ISONIAZID, reference compound] | – | – | – | – | – | – | – | – | – | – | 0.0024 (≈ 0.0175 µM) | 0.075 (≈ 0.547 µM) | 0.0024 (≈ 0.0175 µM) | 0.0078 (≈ 0.0569 µM) | – | – | – | IC50 ([5]; H37RA): 0.0019 µg/mL (≈ 0.0139 µM); MIC ([5]; H37RA): 0.074 µg/mL (≈ 0.54 µM); IC50 ([8]; H37RA): 0.0023 µg/mL (≈ 0.0168 µM); MIC ([8]; H37RA): 0.075 µg/mL (≈ 0.547 µM)
CC(=O)O[C@H]1C(=O)[C@@]2(C)[C@H]([C@H](OC(=O)c3ccccc3)[C@]3(O)C[C@H](OC(=O)[C@H](O)[C@@H](NC(=O)c4ccccc4)c4ccccc4)C(C)=C1C3(C)C)[C@]1(OC(C)=O)CO[C@@H]1C[C@@H]2O [Paclitaxel, reference compound] | 0.128 (≈ 0.15 µM) | 5.71 (≈ 6.69 µM) | 0.0048 (≈ 0.00562 µM) | 0.075 (≈ 0.0878 µM) | 0.0035 (≈ 0.0041 µM) | 0.0706 (≈ 0.0827 µM) | 0.137 (≈ 0.161 µM) | 5.81 (≈ 6.81 µM) | – | – | – | – | – | – | – | – | – | –
CO[C@H]1/C=C/O[C@@]2(C)Oc3c(C)c(O)c4c(O)c(c(/C=N/N5CCN(C)CC5)c(O)c4c3C2=O)NC(=O)/C(C)=C\C=C\[C@H](C)[C@H](O)[C@@H](C)[C@@H](O)[C@@H](C)[C@H](OC(C)=O)[C@@H]1C [RIFAMPICIN, reference compound] | – | – | – | – | – | – | – | – | 0.0018 (≈ 0.00219 µM) | 0.048 (≈ 0.0583 µM) | 0.0021 (≈ 0.00255 µM) | 0.051 (≈ 0.062 µM) | 0.0018 (≈ 0.00219 µM) | 0.048 (≈ 0.0583 µM) | 0.0014 (≈ 0.0017 µM) | 0.043 (≈ 0.0523 µM) | – | –

Reference: US10000527B2, “11-substituted bile acid derivatives, process for the preparation thereof and use of these compounds as medicaments” (priority 2013, dated 2018)
